Measured values reported in PubChem BioAssay AID624404 (Broad Institute, 2012).
Inconclusive results are not listed.

tested on: D54 LucT luciferase reporter counterscreen, luminescence, 24 h; test: reporter signal increase, D54 LucT cells – cell-based, luminescence, cherry pick, counter-screen for N-linked glycosylation inhibitor project, dose response (AID 624404)

`Cc1ccc(-c2nn3c(C)nnc3c3ccccc23)cc1S(=O)(=O)N(C)CCO` and `Cc1nc(-c2ccccc2)sc1-c1nc(-c2ccncc2)ncc1S(=O)(=O)c1ccccc1` are within 1.5-fold of each other in AC35: 599 nM for the first, 411 nM for the second.

Going from `O=C(Nc1cc(=O)[nH]c(=O)[nH]1)c1cc(Cl)ccc1Cl` to `COc1cc2[nH]c(C(=O)Nc3ccc(F)cc3)cc2c(OC)c1OC`, the AC35 falls from 3150 nM to 98.2 nM (32-fold).

First: Cc1ccc2nc(-c3ccncc3)cc(C(=O)Nc3ccncc3)c2c1
Second: COc1ccc(C(=O)c2sc(Nc3ccccc3)nc2N)cc1
The AC35 of the first is 10-fold lower: 64.6 nM for the first, 645 nM for the second.

Going from `COc1ccc(C(=O)N/N=C/C23CC[C@@H](O)CC2(O)CC[C@@H]2[C@@H]3CCC3(C)C(C4=CC(=O)OC4)CCC23O)cc1` (stereo not given in full) to `COc1cccc(N2CCN(C(=O)c3ccc(CS(=O)c4ccc(Cl)cc4)o3)CC2)c1` (stereo not given), the AC35 rises from 388 nM to 773 nM (2-fold).

First: CN1C(=O)CSc2ccc(NC(=O)Nc3ccccn3)cc21
Second: CC(C)c1c(C(=O)Nc2ccccc2)c(-c2ccccc2)c(-c2ccc(F)cc2)n1CC[C@@H](O)C[C@@H](O)CC(=O)O
The AC35 of the first is 1.5-fold lower: 828 nM for the first, 1260 nM for the second.

`COc1cccc(OCc2nc3ncc(Br)cc3[nH]2)c1` and `CCN(CC)c1ccc(/C=N\NC(=O)c2cccc3cc[nH]c23)cc1` are within 1.5-fold of each other in AC35: 2480 nM for the first, 1940 nM for the second.

Compared with `O=C(O)c1ccc(CN2C(=O)c3cccc4c([N+](=O)[O-])ccc(c34)C2=O)cc1`, `COC1C(O)C(C)OC(OC2C(Oc3cccc4c(O)c5c(=O)oc6ccc(C)c7c(=O)oc(c34)c5c67)OC(C)C(O)C2O)C1O` (stereo not given) is 3-fold lower in AC35: 1140 nM for the first, 376 nM for the second.

With `O=C(CCl)Nc1cc(S(=O)(=O)N2CCCCCC2)ccc1Cl` the AC35 was 1160 nM.
